Measured values as given in PMC12439166, “Dietary flavonoids form supramolecular assemblies, alter biochemistry, and enhance cell resilience” (Frontiers in Nutrition, 2025).

Test system: human fibroblasts
Assay: TMT proteomics of fibroblasts with and without UV exposure, differential expression and pathway analysis
Type: cell-based
Settings: result in words
Procedure: Human fibroblasts were obtained from Cell Applications Inc (Cat. # 106-05a) and were maintained in Dulbecco’s Modified Eagle medium (DMEM, Corning, Cat. #10-013-CV) with 10% fetal bovine serum (Gibco, Cat. #10082147) and 1% penicillin/streptomycin (Gibco, Cat. # 15070-063) in a humidified incubator with 5% CO2 at 37 °C. For ultraviolet radiation, fibroblasts were seeded in a 96-well plate at a density of 25,000 cells/well and maintained at 37 °C for 24 h. Cells were washed once with Hanks’ balanced salt solution (HBSS, Gibco, Cat. #14025-092), then treated for 1 h with different concentrations of compounds prepared in HBSS. Vitamin C (Sigma, Cat. # A5960) served as a positive control. Treated cells were exposed to ultraviolet light (UVP cross-linker, CL1000, 254 nm UV, 8 watts) at a total dose of 20 mJ/cm^2. Following irradiation, the HBSS was replaced with culture medium containing the same concentration of compounds as before irradiation, and cells were again maintained at 37 °C. Cell viability was measured at 24 h post-irradiation using CellTiter-Glo according to the manufacturer’s instructions (Promega, Cat.# G7571). Results were expressed as relative cell viability (%) with respect to control cells (cells without ultraviolet irradiation or compound treatment).
Frozen cell pellets were dissolved for 15 min in 6M Guanidinium Chloride at room temperature to lyse cells. Then, each solution was run on a 10 kDa filter (Pall, TX) and washed with 50 μL of TEAB buffer at 3000 rpm. FASP Digestion ([56]): A stock solution of Trypsin Platinum, Mass Spec Grade (Promega) at 100 μg/mL in 50 mM TEAB, and a specific volume of stock trypsin was added to each sample vial for each set of […] using a 1:50 ratio (Trypsin:Protein). Samples were incubated for 2 h at 50 °C and shaken/mixed at 350 rpm on an Eppendorf ThermoMixer C. TMT Labeling: Samples, now peptides, were labeled using 4 μL of TMTpro Mass Tag Labels (ThermoScientific). After labeling, samples were then shaken/mixed for 45 min to ensure labels were covalently bonded to peptides. The labeling reaction was quenched for 10 min using 1 μL of 5% hydroxyalamine. After quenching, samples were pooled into one 2 mL Eppendorf tube and then dried down using an Eppendorf Vacufuge Plus. Desalting Samples: Dried samples were resuspended in 300 μL of 0.1% TFA in ultrapure HPLC-grade water and vortexed to ensure full solubility. Samples were then desalted using Pierce^TM Peptide Desalting Spin Columns (ThermoScientific). Final eluates (desalted samples) contained 600 μL of 50% HPLC-grade Acetonitrile and 50% ultrapure HPLC-grade water. Desalted samples were then transferred to HPLC vials and were again dried down. […]

O=C1O[C@H]([C@@H](O)CO)C(O)=C1O [Vitamin C, reference compound]
proteins/pathways up- and downregulated, exposed to UV radiation (UV-irradiated cells): primarily upregulated proteins associated with cell cycle/DNA repair-related pathways | proteins/pathways up- and downregulated, without UV treatment (control conditions without UV): opposite effects
